From patent US20170147743A1, “RAPID IDENTIFICATION OF PHARMACOLOGICAL TARGETS AND ANTI-TARGETS FOR DRUG DISCOVERY AND REPURPOSING” (UNIVERSITY OF MIAMI, priority 2015, published 2017)

Tests used:
[1] = test system: representative anti-target kinases; assay: Target/anti-target activity matrix from kinase profiling; format: biochemical; settings: FIG. 3B matrix
Procedure: (§1) Activity Profiling of Screened Kinase Inhibitors. In vitro profiling of kinase inhibitors against a panel of 190 kinases was performed. Out of bound values were cropped, whereby values below 0% were adjusted to 0%, and values above 100% were adjusted to 100%.
(§2) FIG. 3B illustrates a resultant target-anti-target activity matrix developed by the identification system (e.g., at process 114). The target/anti-target matrix identifies protein target groups separately from protein anti-target groups, where each group type may be ranked according to various factors, such as biologic activity and inhibition bias. Engagement of the protein targets in the matrix promotes a biological activity; and engagement of the protein anti-targets in the matrix impedes the biological activity. In the particular example of FIG. 3B, representative protein kinases for each kinase group and the compounds that inhibit at least one member in the group by ≧10% are shown. […] Compounds are arranged top to bottom in order of decreasing maximum % NTL (right-hand color scale). […] RO0480500-002 accordingly produced % NTL up to 400%, well above the % NTL of any of the other compound. […]

[2] = test system: representative target kinases; assay: as above; format: biochemical; settings: FIG. 3B matrix; seven targets
Procedure: as §1, §2

[3] = test system: rat embryonic (E18) hippocampal neurons; assay: Neurite outgrowth screening assay with hippocampal neurons; format: cell-based; settings: neurite total length as percentage of control; for NTL_32 (neurite outgrowth, % NTL): concentration 32 (unit not given); for NTL_160 (neurite outgrowth, % NTL): concentration 160 (unit not given); for NTL_800 (neurite outgrowth, % NTL): concentration 800 (unit not given); for NTL_4000 (neurite outgrowth, % NTL): concentration 4000 (unit not given); for NTL_20000 (neurite outgrowth, % NTL): concentration 20000 (unit not given)
From the text: Neurite Outgrowth Screening Assay with Hippocampal Neurons. Kinase inhibitor libraries were screened in a neurite outgrowth assay. Compounds were screened on rat embryonic (E18) hippocampal neurons cultured for 2 DIV on poly-D-lysine. Plates were fixed, immunostained, and imaged. Screened compounds were classified based on their effects on neurite total length, expressed as percentage of control (% NTL), which served as the biological activity referenced in FIG. 1, for this example. Hits were defined as compounds whose biologic activity (% NTL) reached at least 130% in two independent experiments (hits: % NTL 130; non-hits: % NTL<130). That is, in this example an NTL of 130 was used as the threshold measure (see, e.g., FIGS. 8 and 9). […] A stratification (assurance) step was performed by eliminating from subsequent analysis compounds that had biologic activity within 1 standard deviation of the hit threshold (130±15) (see, e.g., FIG. 6A). Compounds that reduced viable cell count (biologic activity) by more than 40% at concentrations below 800 nM were considered to be toxic and also excluded from subsequent analysis.

With COc1cc(N2CCC(N3CCN(C)CC3)CC2)ccc1Nc1ncnc(Nc2ccccc2S(=O)(=O)C(C)C)n1 [ASP3026] the “inhibition of representative anti-target kinases” value [1] was “does not inhibit any” and the “inhibition of representative target kinases” value [2] was “inhibits the two target kinases”.

With c1ccc(-c2cnc(Nc3ccc(OCCN4CCCC4)cc3)s2)cc1 [Flt-3 Inhibitor III] the “NTL_32 (neurite outgrowth, % NTL)” value [3] was 227.0293%, the “NTL_160 (neurite outgrowth, % NTL)” value [3] was 250.8023% and the “NTL_800 (neurite outgrowth, % NTL)” value [3] was 291.5283%. The “NTL_4000 (neurite outgrowth, % NTL)” value [3] was 105.129% and the “NTL_20000 (neurite outgrowth, % NTL)” value [3] was 48.44%.

With NS(=O)(=O)c1cccc(N/C=C2\C(=O)Nc3ccc(S(=O)(=O)Cc4c(Cl)cccc4Cl)cc32)c1 [GSK398099A] the “NTL_32 (neurite outgrowth, % NTL)” value [3] was 100.7527%, the “NTL_160 (neurite outgrowth, % NTL)” value [3] was 86.99% and the “NTL_800 (neurite outgrowth, % NTL)” value [3] was 91.2121%. For the same compound, the “NTL_4000 (neurite outgrowth, % NTL)” value [3] was 234.4329% and the “NTL_20000 (neurite outgrowth, % NTL)” value [3] was 357.738%.

In the case of NC[C@H](CC1CCCCC1)NC(=O)c1ccc(-c2ccnc3[nH]ccc23)s1 [GSK1581428A], the “NTL_32 (neurite outgrowth, % NTL)” value [3] was 229.399%, the “NTL_160 (neurite outgrowth, % NTL)” value [3] was 335.5001% and the “NTL_800 (neurite outgrowth, % NTL)” value [3] was 262.488%. The “NTL_4000 (neurite outgrowth, % NTL)” value [3] was 92.84% and the “NTL_20000 (neurite outgrowth, % NTL)” value [3] was 36.79%.

With N#Cc1ccc(-c2cc(-c3c[nH]nc3-c3ccccn3)ccn2)cc1 [GW693028X] the “NTL_32 (neurite outgrowth, % NTL)” value [3] was 114.3254%, the “NTL_160 (neurite outgrowth, % NTL)” value [3] was 101.7908% and the “NTL_800 (neurite outgrowth, % NTL)” value [3] was 99.07%. For the same compound, the “NTL_4000 (neurite outgrowth, % NTL)” value [3] was 110.3241% and the “NTL_20000 (neurite outgrowth, % NTL)” value [3] was 296.1224%.

N#CC(=C(N)Sc1ccc(N)cc1)c1ccccc1C(F)(F)F [MEK1/2 Inhibitor] was tested, and the “NTL_32 (neurite outgrowth, % NTL)” value [3] was 109.3381%, the “NTL_160 (neurite outgrowth, % NTL)” value [3] was 101.2957% and the “NTL_800 (neurite outgrowth, % NTL)” value [3] was 104.668%. For the same compound, the “NTL_4000 (neurite outgrowth, % NTL)” value [3] was 120.1756% and the “NTL_20000 (neurite outgrowth, % NTL)” value [3] was 286.068%.

In the case of Cl.O=S(=O)(c1cccc2c(I)cccc12)N1CCCNCC1 [ML-7, Hydrochloride], the “NTL_32 (neurite outgrowth, % NTL)” value [3] was 193.8632%, the “NTL_160 (neurite outgrowth, % NTL)” value [3] was 288.4679% and the “NTL_800 (neurite outgrowth, % NTL)” value [3] was 285.3279%. For the same compound, the “NTL_4000 (neurite outgrowth, % NTL)” value [3] was 269.3169% and the “NTL_20000 (neurite outgrowth, % NTL)” value [3] was 70.23%.
